Data published in publication PMC8575619, “Cytotoxic and Antifungal Amides Derived from Ferulic Acid: Molecular Docking and Mechanism of Action” (BioMed Research International, 2021).
Converted amounts (≈) assume the structure as drawn. “And” between values parts separate entries of the source, which are not always exact repeats. Equal values may be shown once. Read-outs that look alike come from different tables or passages of the source.

Experiments:
HepG2 cells = assay: Cytotoxicity assay, alamar blue test; format: cell-based, human; conditions: Homo sapiens, HepG2, 72 h, value (95% confidence interval)
Protocol: (§1) HepG2 cells (human hepatocellular carcinoma), HCT116 (human colon carcinoma), HL-60 (human promyelocytic leukemia), and MRC5 (human lung fibroblast) obtained from the ATCC (Manassas, VA, USA) were used. Cells were cultured in cell culture bottles (75 cm 3, 250 mL volume), and media used were RPMI 1640 and supplemented with 10% fetal bovine serum. Cells were maintained in incubators with 5% CO2 atmosphere at 37°C. Cellular growth was monitored daily with the use of an inversion microscope. The medium was changed whenever cell growth reached the necessary confluence for nutrient renewal. For the maintenance of adhered cells, trypsin (0.25%) was used for the cells to detach from the walls of the bottles.
(§2) To assess the cytotoxicity of the substances, the alamar blue test was performed after 72 h of exposure with the test substances. Alamar blue, known as resazurin [62], is a fluorescent/colorimetric indicator with redox properties. The reduction in alamar blue reflects cell proliferation. This was initially used to indicate cell growth and/or viability in monitoring lymphocyte proliferation and currently has several applications. Initially, cells were plated in 96-well plates (100 μL/well of a solution of 0.3 × 10^6 cells/mL for cells in suspension and 0.7 × 10^5 cells/mL for adhered cells). After 24 h of incubation, the test substances dissolved in DMSO were added to each well and incubated for 72 h. Doxorubicin was used as a positive control. The negative control received the same amount of DMSO. Four hours before the end of the incubation period, 20 μL of the stock solution (0.312 mg/mL) of alamar blue (resazurin) was added to each well. Absorbances were measured at wavelengths of 570 nm (reduced) and 600 nm (oxidized) using a plate reader.

HCT116 = assay: Cytotoxicity assay, alamar blue test; format: cell-based, human; conditions: Homo sapiens, HCT-116, 72 h, value (95% confidence interval)
Protocol: as §1, §2

HL-60 = assay: Cytotoxicity assay, alamar blue test; format: cell-based, human; conditions: Homo sapiens, HL-60, 72 h, value (95% confidence interval), read-out: IC50 HL60
Protocol: as §1, §2

C. albicans CBS 562 = assay: Sorbitol assay (cell wall mechanism), microdilution; format: cell-based, Candida albicans; conditions: Candida albicans, CBS562, C. albicans CBS 562
Protocol: (1) Sorbitol Assay. The microdilution technique was performed in the presence of sorbitol (D-sorbitol, anhydrous) (INLAB laboratory), to determine the mode of action of the compounds on the cell wall of C. albicans CBS 562. For this test, the inoculum was prepared with sorbitol to a final concentration of 0.8 M. The plates were incubated at 35 ± 2°C, and readings were taken 24 h and 48 h after incubation. Caspofungin was used as positive control at an initial concentration of 5 mg/mL [68–70].

[1] = tested on: Candida strains (Candida albicans, C. tropicalis, and C. krusei); assay: Antifungal evaluation (MIC/MFC), statements for all Candida strains; format: cell-based, Candida spp.; conditions: Candida strains; read-out: bioactivity category by MIC
Protocol: The antifungal activity (Table 2) of the ten amides was assessed via the minimum inhibitory concentration (MIC) which was determined using the microdilution methods against three species of Candida strains (Candida albicans, C. tropicalis, and C. krusei).
(§3) Antifungal activity evaluations were performed using references strains of Candida spp., obtained from the Centraalbureau voor Schimmelcultures (CBS, Ultrecht, Netherlands): Candida albicans CBS 562, Candida tropicalis CBS 94, and Candida krusei CBS 573. Nystatin, Tween 80%, DMSO, caspofungin diacetate, and ergosterol were obtained from Sigma-Aldrich® (St. Louis, MO, EUA) and sorbitol (D-sorbitol anhydrous) from INLAB® (São Paulo, Brazil). All assays were performed in triplicate in three independent experiments. The culture medium used for maintenance of the microorganisms was Agar Sabouraud Dextrose (ASD). Inoculants were adjusted to a final concentration of 2.5 × 10^3 CFU/mL (Clinical and Laboratory Standards Institute, 2002). […]
(§4) MIC was determined by the microdilution technique, as previously described by the adapted Clinical and Laboratory Standards Institute (CLSI, 2002) method. The compounds were subjected to the microdilution technique in 96-well plates, with U bottom. The samples were dissolved with DMSO and sterile distilled water (up to 1.0 mL). Through serial dilutions, concentrations of the evaluated compounds ranging from 1000 μg/mL to 7.8 μg/mL. The culture sterility medium, the evaluated substances, and the microbial growth were carried out in parallel. The plates were closed and subjected to a temperature of 35 ± 2°C for 24 h. 1% TTC (2,3,5-triphenyl tetrazolium chloride, Sigma-Aldrich®, St. Louis, MO, EUA) was added to each well to confirm the presence of viable microorganisms. MIC was defined as the lowest concentration of the test substance that inhibits visible microbial growth.
(§5) The minimum fungicide concentration (MFC) of the compounds was obtained after the interpretation of the MIC. Three (3) aliquots of 30 μL of supernatant were removed from the wells (where complete inhibition of fungal growth was analyzed) and placed in Petri dishes containing 15 mL of agar Sabouraud dextrose. The plates were incubated at 35 ± 2°C for 24 h for visual counting of colony forming units.

C. albicans = assay: Ergosterol test (plasma membrane mechanism), microdilution; format: cell-based, Candida albicans; conditions: Candida albicans
Protocol: (2) Ergosterol Test. The test of the compounds was performed using the microdilution technique, as previously described, in the presence of exogenous ergosterol at 400 μg/mL. Nystatin was used as positive control. The plates were incubated at 35 ± 2°C, and readings were taken at 24 and 48 h.

Candida krusei CBS 573 [2] = assay: Minimum fungicide concentration (MFC); format: cell-based
Protocol: as §3
as §5, with “units. To determine whether the compounds had fungistatic (MFC/MIC ≥ 4) or fungicidal (MFC/MIC < 4) activity, the MFC/MIC ratio was calculated.” for “units.”

[3] = tested on: Candida tropicalis CBS 94; assay: Minimum fungicide concentration (MFC); format: cell-based
Protocol: as §3
as §5, with “units. To determine whether the compounds had fungistatic (MFC/MIC ≥ 4) or fungicidal (MFC/MIC < 4) activity, the MFC/MIC ratio was calculated.” for “units.”

Candida albicans CBS 562 [4] = assay: Minimum fungicide concentration (MFC); format: cell-based
Protocol: as §3
as §5, with “units. To determine whether the compounds had fungistatic (MFC/MIC ≥ 4) or fungicidal (MFC/MIC < 4) activity, the MFC/MIC ratio was calculated.” for “units.”

Candida krusei CBS 573 [5] = assay: MIC by broth microdilution; format: cell-based; conditions: Pichia kudriavzevii, CBS573, 24 h, N.A.: no activity, read-out: MIC C. krusei CBS 573
Protocol: as §3, §4

[6] = tested on: Candida tropicalis CBS 94; assay: MIC by broth microdilution; format: cell-based; conditions: CBS94, 24 h, N.A.: no activity, read-out: MIC C. tropicalis CBS 94
Protocol: as §3, §4

Candida albicans CBS 562 [7] = assay: MIC by broth microdilution; format: cell-based; conditions: Candida albicans, CBS562, 24 h, N.A.: no activity, read-out: MIC C. albicans CBS 562
Protocol: as §3, §4

MRC5 = assay: Cytotoxicity assay, alamar blue test (healthy cell line); format: cell-based, human; conditions: Homo sapiens, MRC5, 72 h, value (95% confidence interval)
Protocol: as §1, §2

[8] = ≥ 4 fungistatic or <4 fungicide

Question: With COc1cc(C=CC(=O)NCc2ccc3c(c2)OCO3)ccc1O [Compound 11] as the molecule, how does the IC50 (HepG2 cells) read?
Answer: > 25 µg/mL and > 76.4 µM

Question: What about the IC50 (HCT116) of the same molecule?
Answer: > 25 µg/mL and > 76.4 µM

Question: And the IC50 (HL-60)?
Answer: 18.8 µg/mL and 57.4 µM

Question: What about the MIC (C. albicans CBS 562; absence of sorbitol, read-out: MIC Without sorbitol) of the same molecule?
Answer: 15.6 µg/mL (≈ 47.7 µM)

Question: What about the MIC (C. albicans CBS 562; sorbitol 0.8 M, read-out: MIC With sorbitol) of the same molecule?
Answer: > 1000 µg/mL

Question: And the MIC [1]?
Answer: 26 to 125 µg/mL (≈ 79.4 to 382 µM)

Question: And the melting point?
Answer: 172 to 175 °C

Question: What about the MIC (C. albicans; absence of ergosterol, read-out: MIC Without ergosterol) of the same molecule?
Answer: 62.2 µg/mL (≈ 190 µM)

Question: What about the MIC (C. albicans; exogenous ergosterol at 400 μg/mL, read-out: MIC With ergosterol) of the same molecule?
Answer: 62.2 µg/mL (≈ 190 µM)

Question: What about the MFC (Candida krusei CBS 573 [2]; Pichia kudriavzevii, CBS573, N.A.: no activity, read-out: MFC C. krusei CBS 573) of the same molecule?
Answer: 62.5 µg/mL and 190 µM

Question: And the “MIC/MFC reason C. krusei CBS 573” value (Candida krusei CBS 573 [2]; [8])?
Answer: 1

Question: What about the MFC ([3]; Candida tropicalis, CBS94, N.A.: no activity, read-out: MFC C. tropicalis CBS 94) of the same molecule?
Answer: 500 µg/mL and 1520 µM

Question: And the “MIC/MFC reason C. tropicalis CBS 94” value [3, 8]?
Answer: 1

Question: And the MFC (Candida albicans CBS 562 [4]; Candida albicans, CBS562, N.A.: no activity, read-out: MFC C. albicans CBS 562)?
Answer: 125 µg/mL and 380 µM

Question: What about the “MIC/MFC reason C. albicans CBS 562” value (Candida albicans CBS 562 [4]; [8]) of the same molecule?
Answer: 2

Question: And the MIC (Candida krusei CBS 573 [5])?
Answer: 62.5 µg/mL (≈ 191 µM)

Question: And the MIC [6]?
Answer: 500 µg/mL (≈ 1530 µM)

Question: And the MIC (Candida albicans CBS 562 [7])?
Answer: 62.5 µg/mL and 190 µM

Question: And the IC50 (MRC5)?
Answer: > 25 µg/mL and > 76.4 µM
